This note sets out measurements from patent US9382224B2, “7-acyloxychromen-4-one derivatives and the use thereof as self-tanning substances” (MERCK PATENT GMBH, priority 2011, dated 2016).

The subject of test [1] is tissue samples taken from the stomach tissue of a person. Kind of test: Ex vivo study on the promotion of melanogenesis: chromatometry of tissue samples. The test is classed as cell-based, human. Conditions: for % L: D10 versus D0. The procedure: (§1) The tissue samples having a diameter of 10 mm are taken from the stomach tissue of a person and stored in BEM medium at 37° C. in a moist atmosphere having a CO2 content of 5%. The tissue samples are employed in accordance with the following test plan:
(§2) 30 μl of test solution are placed on a filter paper and immediately laid on the tissue sample.
(§3) The irradiations are carried out daily before treatment of the tissue samples with test solutions. An RMX 3W Vilbert Lourmat instrument is used. The UV dose is 1.04 J/cm2 comprising 6/8% of UVB.
The colour coordinates of the tissue samples are determined by means of a Minolta CM 2600d chromatometer.

The subject of test [2] is melanocytes and keratinocytes of tissue samples taken from the stomach tissue of a person. Kind of test: Ex vivo study on the promotion of melanogenesis: histological analysis, melanin visualisation. The test is classed as cell-based, human. Conditions: for activity of the melanocytes / melanin content in basal keratinocytes / melanin content in suprabasal keratinocytes / melanin in basal keratinocytes: treatment for 10 days. The procedure: as §1, §2, §3
On the first day (D0), 3 untreated tissue samples are halved, and in each case one half is fixed in buffered formalin solution. The respective other halves are frozen at −80° C.
After fixing for 24 hours in buffered formalin solution, the samples are dehydrated in a Leica TP1010 automatic dryer and impregnated with paraffin. After embedding with the aid of a Leica EG1160 station, 5 μm thin cross sections are produced from the samples using a Leica RM 2125 Minot-type microtome.
The cross sections are mounted on Superfrost Plus specimen slides made from silanised glass. The light-microscopy analysis is carried out by means of a Leica Orthoplan microscope with 25-times magnification in order to assess the general morphology or 40-times magnification in order to visualise the melanin.
The melanin visualisation is carried out after impregnation of the paraffinised cross-sections with silver in accordance with Masson in the Fontana variant.

[3] abbreviates: with UV irradiation, after 10 days.
[4] abbreviates: without UV irradiation, after 10 days.

As to `COc1cc(O)c2c(=O)cc(C)oc2c1` [5-hydroxy-7-methoxy-2-methylchromen-4-one], the “activity indicated by chromatometric analysis” value (shortened to “activity indicated”) in test [1] (with UV irradiation) and in test [1] (without UV irradiation) was “skin-lightening activity” throughout. Further, the L in test [1] (with UV irradiation, D0) came to 63.63; in test [1] (with UV irradiation, D10) it was 64.60; in test [1] (without UV irradiation, D0), 61.50; in test [1] (without UV irradiation, D10), 64.64. Moreover, the “% L” value was found to be 1.5% in test [1] (with UV irradiation) and 5.1% in test [1] (without UV irradiation). The “change in the L parameter (in words)” value in test [1] (setting [3]) is “increase in the L parameter”. For the same compound, the “activity of the melanocytes” value in test [2] (with UV irradiation) and in test [2] (without UV irradiation) was “very low activity” each time. The “melanin content in basal keratinocytes” value in test [2] (with UV irradiation) is given as “moderate”. Moreover, the “melanin content in suprabasal keratinocytes” value in test [2] (with UV irradiation) and in test [2] (without UV irradiation) was “low” throughout. Also, the “melanin in basal keratinocytes” value in test [2] (without UV irradiation) is given as “moderate”.

Consider `CC(=O)c1cc(O)c2c(=O)cc(C)oc2c1` [5-hydroxy-7-acetyl-2-methylchromen-4-one], for which the “tanning activity in the ex vivo experiment” value in test [1] is recorded as “no tanning activity”. Also, the “activity indicated” value in test [1] (with UV irradiation) and in test [1] (without UV irradiation) was “skin-lightening activity” in each case. For the same compound, the L in test [1] (with UV irradiation, D0) worked out at 63.66; in test [1] (with UV irradiation, D10), 64.87; in test [1] (without UV irradiation, D0), 62.19; in test [1] (without UV irradiation, D10), 63.98. Besides, the “% L” value in test [1] (with UV irradiation) amounted to 1.9%; in test [1] (without UV irradiation) it was 2.9%. Besides, the “change in the L parameter (in words)” value in test [1] (setting [3]) is on record as “increase in the L parameter”. Further, the “increase in the L parameter” value in test [1] (setting [4]) worked out at 2.9%. Besides, the “activity of the melanocytes” value is recorded as “low activity” in test [2] (with UV irradiation) and “very low activity” in test [2] (without UV irradiation). Moreover, in test [2] (with UV irradiation), the “melanin content in basal keratinocytes” value is “moderate”. Further, the “melanin content in suprabasal keratinocytes” value in test [2] (with UV irradiation) and in test [2] (without UV irradiation) was “low” each time. Further, in test [2] (without UV irradiation), the “melanin in basal keratinocytes” value is reported as “moderate”.

For the compound `CCCCCCCCCCCCCCCC(=O)Oc1cc(O)c2c(=O)cc(C)oc2c1` [compound Ia, 5-hydroxy-2-methyl-4-oxo-4H-chromen-7-yl hexadecanoate], the “activity indicated” value was “clear pro-pigmenting activity” in test [1] (with UV irradiation) and “pro-pigmenting activity” in test [1] (without UV irradiation). In addition, the L in test [1] (with UV irradiation, D0) is recorded as 64.07; in test [1] (with UV irradiation, D10), 61.52; in test [1] (without UV irradiation, D0), 64.53; in test [1] (without UV irradiation, D10) it was 61.24. For the same compound, the “% L” value in test [1] (with UV irradiation) is given as −4%; in test [1] (without UV irradiation) it was −5.1%. Besides, the “light/dark parameter L drops by” value in test [1] (setting [3]) was found to be 4.0%. Further, the “decrease in the L parameter” value in test [1] (setting [4]) came to 5.1%. Moreover, the “activity of the melanocytes” value in test [2] (with UV irradiation) is on record as “high degree of activity”; in test [2] (without UV irradiation) it was “very high activity”. Moreover, the “melanin content in basal keratinocytes” value in test [2] (with UV irradiation) is recorded as “high”. Also, the “melanin content in suprabasal keratinocytes” value in test [2] (with UV irradiation) and in test [2] (without UV irradiation) was “moderate” each time. Besides, in test [2] (without UV irradiation, compared with the untreated control), the “increase of the area of the basal layer occupied by melanin” value is given as 43%. In test [2] (without UV irradiation), the “melanin in basal keratinocytes” value was “readily detectable”.
